These results are taken from ChEMBL document CHEMBL4680138, “A 18β-glycyrrhetinic acid conjugate with Vorinostat degrades HDAC3 and HDAC6 with improved antitumor effects” (Eur J Med Chem, 2020).

One experiment relates to PC-3. The experiment is described as follows: Cytotoxicity against human PC-3 cells assessed as reduction in cell viability after 96 hrs by MTT assay. The format is functional, cell-based. The conditions noted are these: PC-3, 96 h. A general note: Tetrazolium assays rely on reduction of a dye to a coloured formazan, in cell work by metabolically active cells.
For experiment [1], the system named is HL-60. As to the kind of experiment: Antiproliferative activity against human HL-60 cells assessed as cell growth inhibition after 72 hrs by trypan blue staining based cell counting assay. The format is functional. The conditions noted are these: HL-60, 72 h.
In experiment [2] the test system is HL-60. The experiment is described as follows: Induction of apoptosis in human HL-60 cells assessed as increase in accumulation at sub-G1 phase at 0.5 uM after 24 hrs by propidium iodide staining based flow cytometry (reference value: 2.72 %). The format is functional. Background: In flow cytometry, cells or beads pass a laser one at a time.
The test system of experiment [3] is HL-60. As to the kind of experiment: Induction of apoptosis in human HL-60 cells assessed as increase in accumulation at sub-G1 phase at 1 uM after 24 hrs by propidium iodide staining based flow cytometry (reference value: 2.72 %). In kind it is functional.
The test system of experiment [4] is HL-60. The experiment is described as follows: Induction of apoptosis in human HL-60 cells assessed as increase in accumulation at sub-G1 phase at 2 uM after 24 hrs by propidium iodide staining based flow cytometry (reference value: 2.72 %). In kind it is functional.
The subject of experiment [5] is HL-60. As to the kind of experiment: Induction of apoptosis in human HL-60 cells assessed as live cells at 0.5 uM measured after 24 hrs by Annexin-V/FITC and propidium iodide staining based flow cytometry (reference value: 89.29 %). The format is functional.
Experiment [6] deals with HL-60. As to the kind of experiment: Induction of apoptosis in human HL-60 cells assessed as early apoptotic cells at 0.5 uM measured after 24 hrs by Annexin-V/FITC and propidium iodide staining based flow cytometry (reference value: 2.46 %). In kind it is functional.
For experiment [7], the system named is HL-60. As to the kind of experiment: Induction of apoptosis in human HL-60 cells assessed as late apoptotic cells at 0.5 uM measured after 24 hrs by Annexin-V/FITC and propidium iodide staining based flow cytometry (reference value: 7.24 %). The format is functional.
Experiment [8] concerns HL-60. The experiment is described as follows: Induction of apoptosis in human HL-60 cells assessed as necrotic cells at 0.5 uM measured after 24 hrs by Annexin-V/FITC and propidium iodide staining based flow cytometry (reference value: 1.01 %). The format is functional.
In experiment [9] the test system is HL-60. As to the kind of experiment: Induction of apoptosis in human HL-60 cells assessed as live cells at 1 uM measured after 24 hrs by Annexin-V/FITC and propidium iodide staining based flow cytometry (reference value: 89.29 %). The format is functional.
Experiment [10] concerns HL-60. The experiment is described as follows: Induction of apoptosis in human HL-60 cells assessed as early apoptotic cells at 1 uM measured after 24 hrs by Annexin-V/FITC and propidium iodide staining based flow cytometry (reference value: 2.46 %). In kind it is functional.
In experiment [11] the test system is HL-60. The experiment is described as follows: Induction of apoptosis in human HL-60 cells assessed as late apoptotic cells at 1 uM measured after 24 hrs by Annexin-V/FITC and propidium iodide staining based flow cytometry (reference value: 7.24 %). In kind it is functional.
Experiment [12] relates to HL-60. The experiment is described as follows: Induction of apoptosis in human HL-60 cells assessed as necrotic cells at 1 uM measured after 24 hrs by Annexin-V/FITC and propidium iodide staining based flow cytometry (reference value: 1.01 %). In kind it is functional.
The subject of experiment [13] is HL-60. The experiment is described as follows: Induction of apoptosis in human HL-60 cells assessed as live cells at 2 uM measured after 24 hrs by Annexin-V/FITC and propidium iodide staining based flow cytometry (reference value: 89.29 %). The format is functional.
In experiment [14] the test system is HL-60. The experiment is described as follows: Induction of apoptosis in human HL-60 cells assessed as early apoptotic cells at 2 uM measured after 24 hrs by Annexin-V/FITC and propidium iodide staining based flow cytometry (reference value: 2.46 %). In kind it is functional.
The subject of experiment [15] is HL-60. As to the kind of experiment: Induction of apoptosis in human HL-60 cells assessed as late apoptotic cells at 2 uM measured after 24 hrs by Annexin-V/FITC and propidium iodide staining based flow cytometry (reference value: 7.24 %). The format is functional.
The subject of experiment [16] is HL-60. The experiment is described as follows: Induction of apoptosis in human HL-60 cells assessed as necrotic cells at 2 uM measured after 24 hrs by Annexin-V/FITC and propidium iodide staining based flow cytometry (reference value: 1.01 %). In kind it is functional.
The test system of experiment [17] is HL-60. As to the kind of experiment: Upregulation of acetylated H3 level in human HL-60 cells at 2 uM measured after 12 hrs by Western blot analysis. In kind it is functional, cell-based.
Experiment [18] has as its system HL-60. The experiment is described as follows: Upregulation of acetylated alpha-tubulin level in human HL-60 cells at 2 uM measured after 12 hrs by Western blot analysis. In kind it is functional, cell-based.

Molecules are shown by their SMILES. pIC50: −log10 of the molar value. The source made the active and inactive calls. The calls are words filed in the database; no cut-off is given here.

A word on the pIC50: it is the negative decadic logarithm of the IC50, by convention in mol/L. With `CC1(C)[C@@H](O)CC[C@]2(C)[C@H]3C(=O)C=C4[C@@H]5C[C@@](C)(C(=O)NCCCC(=O)NO)CC[C@]5(C)CC[C@@]4(C)[C@]3(C)CC[C@@H]12`, the pIC50 in the experiment with PC-3 is 4.60; with HL-60 [1] it was 4.67.
Regarding `CC1(C)[C@@H](O)CC[C@]2(C)[C@H]3C(=O)C=C4[C@@H]5C[C@@](C)(C(=O)N6CCN(c7ccc(NC(=O)CCCCC(=O)NO)cc7)CC6)CC[C@]5(C)CC[C@@]4(C)[C@]3(C)CC[C@@H]12`, the pIC50 is 5.26 with PC-3 and 5.47 in the experiment with HL-60 [1].
Take `CC1(C)[C@@H](O)CC[C@]2(C)[C@H]3C(=O)C=C4[C@@H]5C[C@@](C)(C(=O)OCCOc6ccc(NC(=O)CCCC(=O)NO)cc6)CC[C@]5(C)CC[C@@]4(C)[C@]3(C)CC[C@@H]12`: the pIC50 in the experiment on PC-3 was 5.16; with HL-60 [1] it was 5.82.
Regarding `CC1(C)[C@@H](O)CC[C@]2(C)[C@H]3C(=O)C=C4[C@@H]5C[C@@](C)(C(=O)N6CCN(c7ccc(NC(=O)CCCC(=O)NO)cc7)CC6)CC[C@]5(C)CC[C@@]4(C)[C@]3(C)CC[C@@H]12`, the values for the negative logarithm of the IC50 (pIC50) in the experiment on PC-3 and with HL-60 [1] were 4.93 and 5.32, respectively.
On to `CC1(C)[C@@H](O)CC[C@]2(C)[C@H]3C(=O)C=C4[C@@H]5C[C@@](C)(C(=O)NCCCCCC(=O)NO)CC[C@]5(C)CC[C@@]4(C)[C@]3(C)CC[C@@H]12`, for which the results for the pIC50 with PC-3 and in the experiment with HL-60 [1] were 4.87 and 5.06, respectively.
Consider `CC1(C)[C@@H](O)CC[C@]2(C)[C@H]3C(=O)C=C4[C@@H]5C[C@@](C)(C(=O)N6CCN(c7ccc(NC(=O)CCCCCCC(=O)NO)cc7)CC6)CC[C@]5(C)CC[C@@]4(C)[C@]3(C)CC[C@@H]12`, for which the pIC50 in the experiment with PC-3 was 5.61; in the experiment on HL-60 [1] it was 6.14.
With `CC1(C)[C@@H](O)CC[C@]2(C)[C@H]3C(=O)C=C4[C@@H]5C[C@@](C)(C(=O)N6CCN(c7ccc(NC(=O)CCCCCC(=O)NO)cc7)CC6)CC[C@]5(C)CC[C@@]4(C)[C@]3(C)CC[C@@H]12`, the results for the pIC50 in the experiment with PC-3 and with HL-60 [1] were 5.51 and 5.75, respectively.
In the case of `CC1(C)[C@@H](O)CC[C@]2(C)[C@H]3C(=O)C=C4[C@@H]5C[C@@](C)(C(=O)OCCCOc6ccc(NC(=O)CCCCCC(=O)NO)cc6)CC[C@]5(C)CC[C@@]4(C)[C@]3(C)CC[C@@H]12`, the pIC50 in the experiment on PC-3 was 5.37; in the experiment with HL-60 [1], 5.79.
Taken in the same sequence, the figures for `CC1(C)[C@@H](O)CC[C@]2(C)[C@H]3C(=O)C=C4[C@@H]5C[C@@](C)(C(=O)OCCCOc6ccc(NC(=O)CCCC(=O)NO)cc6)CC[C@]5(C)CC[C@@]4(C)[C@]3(C)CC[C@@H]12` were 5.35 and 5.87.
`O=C(CCCCCCC(=O)Nc1ccccc1)NO` [VORINOSTAT]: the Activity in the experiment with HL-60 [2] stood at 2.07%; in the experiment with HL-60 [3] it was 5.34%; with HL-60 [4] it was 43.31%; in the experiment on HL-60 [5], 86.69%; with HL-60 [6], 2.41%; in the experiment on HL-60 [7], 8.95%. The Activity is recorded as 1.94% in the experiment with HL-60 [8]; 82.27% with HL-60 [9]; 2.42% with HL-60 [10]; 12.96% in the experiment with HL-60 [11]; 2.36% in the experiment with HL-60 [12]; 49.4% in the experiment with HL-60 [13]. For the same compound, the Activity with HL-60 [14] came out at 5.02%; with HL-60 [15], 39.71%; with HL-60 [16], 5.87%. The result in the experiment with HL-60 [17] and in the experiment with HL-60 [18] was Active.
Consider `CC1(C)[C@@H](O)CC[C@]2(C)[C@H]3C(=O)C=C4[C@@H]5C[C@@](C)(C(=O)OCCOc6ccc(NC(=O)CCCCCCC(=O)NO)cc6)CC[C@]5(C)CC[C@@]4(C)[C@]3(C)CC[C@@H]12`, for which the pIC50 in the experiment on PC-3 was 5.07; with HL-60 [1] it was 5.35.
`CC1(C)[C@@H](O)CC[C@]2(C)[C@H]3C(=O)C=C4[C@@H]5C[C@@](C)(C(=O)OCCCOc6ccc(NC(=O)CCCCC(=O)NO)cc6)CC[C@]5(C)CC[C@@]4(C)[C@]3(C)CC[C@@H]12`: the figures for the pIC50 in the experiment on PC-3 and in the experiment on HL-60 [1] were 5.40 and 5.85, respectively.
For `CC1(C)[C@@H](O)CC[C@]2(C)[C@H]3C(=O)C=C4[C@@H]5C[C@@](C)(C(=O)NCCCCC(=O)NO)CC[C@]5(C)CC[C@@]4(C)[C@]3(C)CC[C@@H]12`, the pIC50 in the experiment with PC-3 was 4.73; with HL-60 [1], 4.81.
Take `CC1(C)[C@@H](O)CC[C@]2(C)[C@H]3C(=O)C=C4[C@@H]5C[C@@](C)(C(=O)NCCCCCCC(=O)NO)CC[C@]5(C)CC[C@@]4(C)[C@]3(C)CC[C@@H]12`: the pIC50 was 4.93 in the experiment with PC-3 and 5.02 with HL-60 [1].
`CC1(C)[C@@H](O)CC[C@]2(C)[C@H]3C(=O)C=C4[C@@H]5C[C@@](C)(C(=O)O)CC[C@]5(C)CC[C@@]4(C)[C@]3(C)CC[C@@H]12` [ENOXOLONE]: the values for the negative logarithm of the IC50 (pIC50) in the experiment on PC-3 and in the experiment on HL-60 [1] were 3.98 and 4.26, respectively.
Regarding `CC1(C)[C@@H](O)CC[C@]2(C)[C@H]3C(=O)C=C4[C@@H]5C[C@@](C)(C(=O)OCCOc6ccc(NC(=O)CCCCCC(=O)NO)cc6)CC[C@]5(C)CC[C@@]4(C)[C@]3(C)CC[C@@H]12`, the pIC50 was 5.43 in the experiment on PC-3 and 5.55 in the experiment with HL-60 [1].
With `CC1(C)[C@@H](O)CC[C@]2(C)[C@H]3C(=O)C=C4[C@@H]5C[C@@](C)(C(=O)OCCCOc6ccc(NC(=O)CCCCCCC(=O)NO)cc6)CC[C@]5(C)CC[C@@]4(C)[C@]3(C)CC[C@@H]12`, the pIC50 in the experiment with PC-3 is 5.27; in the experiment with HL-60 [1] it was 5.56.
With `COC(=O)[C@@]1(C)CC[C@]2(C)CC[C@]3(C)C(=CC(=O)[C@@H]4[C@@]5(C)C=C(C#N)C(=O)C(C)(C)[C@@H]5CC[C@]43C)[C@@H]2C1`, the pIC50 with PC-3 was 5.77; in the experiment on HL-60 [1] it was 5.87. Also, the Activity in the experiment on HL-60 [2] was determined as 2.91%; in the experiment with HL-60 [3] it was 3.57%; with HL-60 [4], 19.18%; with HL-60 [5] it was 87.34%; with HL-60 [6], 1.77%; in the experiment with HL-60 [7], 9%. Also, the Activity is given as 1.89% with HL-60 [8]; 81.11% in the experiment on HL-60 [9]; 3.27% in the experiment with HL-60 [10]; 13.31% in the experiment with HL-60 [11]; 2.31% in the experiment on HL-60 [12]; 77.42% with HL-60 [13]. Also, the Activity is 2.52% with HL-60 [14], 16.96% in the experiment with HL-60 [15] and 3.1% in the experiment on HL-60 [16]. The outcome with HL-60 [17] was inactive.
Regarding `CC1(C)[C@@H](O)CC[C@]2(C)[C@H]3C(=O)C=C4[C@@H]5C[C@@](C)(C(=O)OCCOc6ccc(NC(=O)CCCCC(=O)NO)cc6)CC[C@]5(C)CC[C@@]4(C)[C@]3(C)CC[C@@H]12`, the pIC50 in the experiment on PC-3 was 5.09; with HL-60 [1] it was 5.68.
